This is an account of results in patent US6433003B1 (priority 1999, dated 2002).

In data set [1] the test system is hyperhidrosis. The following applies: in vivo; cited from earlier work.
The subject of data set [2] is gustatory sweating associated with diabetic autonomic neuropathy. As to conditions: in vivo; cited from earlier work.
For data set [3], the system named is hyperhidrosis. As to conditions: human, in vivo.
The conditions of data set [4]: in vivo; cited from earlier work.
The test system of data set [5] is hyperhidrosis. The following applies: in vivo; cited from earlier work. The source holds these as a separate data set.

For the compound `C[N+]1(C)CCC(OC(=O)C(O)(c2ccccc2)C2CCCC2)C1.[Br-]` (centres unmarked) [glycopyrrolate], in the data set on hyperhidrosis [1], the “duration of reduction of the hyperhidrosis” value is given as “up to 4 weeks” and the side effects result is listed as “abdominal discomfort”. The gustatory sweating entry in data set [2] is on record as “prevented the gustatory sweating”. For the same compound, in the data set on hyperhidrosis [3], the “perspiration associated with the hyperhidrosis” value is “reduction in the perspiration” and the “unwanted perspiration at the location where the glycopyrrolate is applied” value was “reduces the unwanted perspiration”. For the same compound, the side effects result in data set [4] was “few side effects”.
For the compound botulinum A neurotoxin [BOTOX], in the data set with hyperhidrosis [5], the benefit in hyperhidrosis entry is “statistically significant benefit” and the duration of effect entry is “several months”.
